For test [1], the system named is A2058 (PTEN null/Braf mutant) melanoma model. Briefly: A2058 melanoma xenograft model, tumor growth inhibition. The class given is in vivo. On the procedure:
Methods of measuring TGI are known in the art. In one example method, average tumor volumes are determined and compared from the patient before and after treatment. Tumor volumes can be measured in two dimensions (length and width) using any method in the art, for example UltraCal IV calipers (Fred V. Fowler Company) or by PET (positron emission tomography), or by some other method. The formula tumor volume (mm^3)=(length×width^2)×0.5 can be used. Measuring tumor volumes over multiple time periods can be done using a mixed-modeling Linear Mixed Effects (LME) approach (Pinheiro et al. 2009). This approach can address both repeated measurements (and multiple patients). Cubic regression splines can be used to fit a non-linear profile to the time courses of tumor volume at each dose level. These non-linear profiles can then be related to dose within the mixed model. Tumor growth inhibition as a percent of vehicle can be calculated as a percent area under the fitted curve (AUC) per day in relation to the vehicle, using the following formula:
[formula] Using this formula, a TGI value of 100% indicates tumor stasis, greater than about 1% but less than about 100% indicates tumor growth inhibition, and greater than about 100% indicates tumor regression. Preparation of a Compound of Formula I
The efficacy of representative combinations of the invention were measured in vivo by implanting allografts or xenografts of cancer cells in rodents and treating the tumor-bearing animals with the combinations. Variable results are to be expected depending on the cell line, the presence or absence of certain mutations in the tumor cells, the sequence of administration the compounds, dosing regimen, and other factors. Subject mice were treated with drug(s) or control (Vehicle) and monitored over several weeks or more to measure the time to tumor doubling, log cell kill, and tumor inhibition.

The test system of the next test is MALME3M cells. Briefly: Cell viability assay (CellTiter-Glo), MALME3M. The class given is cell-based, human. The following applies: MALME3M B-RAF V600E metastatic melanoma cell line. The procedure: (§1) Cells were plated in black, clear-bottomed 384-well plates (Catalog 353962; Becton Dickinson; Franklin Lakes, N.J.) at a density of 1500 cells/well and incubated overnight to 1.5 days at 37° C., 5% CO2. Serial dilutions of GDC-0068, GDC-0973, or both in combination were then added to the cells and incubated for another 96 hours. Cell viability was determined by measuring the cellular adenosine triphosphate (ATP) levels as described in the manufacturer's protocol (CellTiter-Glo Luminescent Cell Viability Assay kit; Catalog G7573; Promega, Madison, Wis.). Luminescence signal was recorded on an EnVision 2101 Multilabel Reader (PerkinElmer; Waltham, Mass.).
(§2) Percentage inhibition was calculated by dividing the relative light unit (RLU) of cells exposed to the GDC-0068 and GCD-0973 combination to the RLU of cells exposed to DMSO and subtracting it from 1, as expressed below: % inhibition=1−(RLUcombination/RLUDMSO)
(§3) BLISS analysis compared the expected % inhibition (E=EGDC-0068+EGDC-0973−EGDC-0068×EGDC-0973) with the experimentally observed % inhibition, EOBS. The BLISS score is the difference (ΔE=EOBS−E) between the expected % inhibition, E, and the experimentally observed inhibition, EOBS.

The next test deals with MALME3 cells. Description: Cell viability assay (CellTiter-Glo), MALME3. The class given is cell-based, human. Particulars: MALME3 normal skin fibroblasts. On the procedure:
as §1, §2, §3
A general note: In ATP-based viability assays light output follows the ATP content of the culture.

The structures appear in SMILES notation.

`CC(C)NC[C@@H](C(=O)N1CCN(c2ncnc3c2[C@H](C)C[C@H]3O)CC1)c1ccc(Cl)cc1` [GDC-0068, (S)-2-(4-chlorophenyl)-1-(4-((5R,7R)-7-hydroxy-5-methyl-6,7-dihydro-5H-cyclopenta[d]pyrimidin-4-yl)piperazin-1-yl)-3-(isopropylamino)propan-1-one]: the “single agent tumor growth inhibition (TGI)” value in test [1] (50 mg/kg of GDC-0068) is reported as “No TGI”; in test [1] (higher doses of GDC-0068 (75 and 100 mg/kg)) it was “Comparable single agent tumor growth inhibition (TGI)”. Further, the “single agent effect on cell viability” value in the test with MALME3M cells is given as “lack of single agent activity”.

Regarding `O=C(c1ccc(F)c(F)c1Nc1ccc(I)cc1F)N1CC(O)([C@@H]2CCCCN2)C1` [GDC-0973, (S)-(3,4-difluoro-2-(2-fluoro-4-iodophenylamino)phenyl)(3-hydroxy-3-(piperidin-2-yl)azetidin-1-yl)methanone], the “single agent tumor growth inhibition (TGI)” value in test [1] (all doses of GDC-0973) was “Comparable single agent tumor growth inhibition (TGI)”. Also, the “single agent effect on cell viability” value was “sensitivity” in the test with MALME3M cells and “resistant” with MALME3 cells.

Values taken from patent US9682082B2, “Combinations of AKT and MEK inhibitor compounds, and methods of use” (GENENTECH, INC., priority 2011, dated 2017).
